How the values were obtained:
Assay in all cases: biochemical
Assay type in all cases: binding
468 kinases [1] = molecular target: 468 kinases (Homo sapiens, UniProt Q8NEV4); details: MYO3A; read-out: % Inhibition @ 100 nM
468 kinases [2] = molecular target: 468 kinases (Homo sapiens, UniProt O75385); details: ULK1; read-out: % Inhibition @ 100 nM
468 kinases [3] = molecular target: 468 kinases (Homo sapiens, UniProt Q9Y5S2); details: MRCKB; read-out: % Inhibition @ 100 nM
468 kinases [4] = molecular target: 468 kinases (Homo sapiens, UniProt Q99558); details: NIK; read-out: % Inhibition @ 100 nM
468 kinases [5] = molecular target: 468 kinases (Homo sapiens, UniProt Q96RR4); details: CAMKK2; read-out: % Inhibition @ 100 nM
468 kinases [6] = molecular target: 468 kinases (Homo sapiens, UniProt P53779); details: JNK3; read-out: % Inhibition @ 100 nM
468 kinases [7] = molecular target: 468 kinases (Homo sapiens, UniProt Q9UKE5); details: TNIK; read-out: % Inhibition @ 100 nM
468 kinases [8] = molecular target: 468 kinases (Homo sapiens, UniProt O94768); details: DRAK2; read-out: % Inhibition @ 100 nM
468 kinases [9] = molecular target: 468 kinases (Homo sapiens, UniProt P16591); details: FER; read-out: % Inhibition @ 100 nM
468 kinases [10] = molecular target: 468 kinases (Homo sapiens, UniProt P42336, H1047Y); details: PIK3CA(H1047Y); read-out: % Inhibition @ 100 nM
468 kinases [11] = molecular target: 468 kinases (Homo sapiens, UniProt P15056, V600E); details: BRAF(V600E); read-out: % Inhibition @ 100 nM
468 kinases [12] = molecular target: 468 kinases (Homo sapiens, UniProt P27037); details: ACVR2A; read-out: % Inhibition @ 100 nM
468 kinases [13] = molecular target: 468 kinases (Homo sapiens, UniProt Q86V86); details: PIM3; read-out: % Inhibition @ 100 nM
468 kinases [14] = molecular target: 468 kinases (Homo sapiens, UniProt Q9HBH9); details: MKNK2; read-out: % Inhibition @ 100 nM
468 kinases [15] = molecular target: 468 kinases (Homo sapiens, UniProt Q6DT37); details: DMPK2; read-out: % Inhibition @ 100 nM
468 kinases [16] = molecular target: 468 kinases (Homo sapiens, UniProt P48730); details: CSNK1D; read-out: % Inhibition @ 100 nM
468 kinases [17] = molecular target: 468 kinases (Homo sapiens, UniProt Q9Y3S1); details: WNK2; read-out: % Inhibition @ 100 nM
468 kinases [18] = molecular target: 468 kinases (Homo sapiens, UniProt P51817); details: PRKX; read-out: % Inhibition @ 100 nM
468 kinases [19] = molecular target: 468 kinases (Homo sapiens, UniProt P42336, H1047L); details: PIK3CA(H1047L); read-out: % Inhibition @ 100 nM
468 kinases [20] = molecular target: 468 kinases (Homo sapiens, UniProt Q13705); details: ACVR2B; read-out: % Inhibition @ 100 nM
468 kinases [21] = molecular target: 468 kinases (Homo sapiens, UniProt Q99759); details: MAP3K3; read-out: % Inhibition @ 100 nM
468 kinases [22] = molecular target: 468 kinases (Homo sapiens, UniProt Q9BRS2); details: RIOK1; read-out: % Inhibition @ 100 nM
468 kinases [23] = molecular target: 468 kinases (Homo sapiens, UniProt Q16816); details: PHKG1; read-out: % Inhibition @ 100 nM
468 kinases [24] = molecular target: 468 kinases (Homo sapiens, UniProt P22607, G697C); details: FGFR3(G697C); read-out: % Inhibition @ 100 nM
468 kinases [25] = molecular target: 468 kinases (Homo sapiens, UniProt Q9UHD2); details: TBK1; read-out: % Inhibition @ 100 nM
468 kinases [26] = molecular target: 468 kinases (Homo sapiens, UniProt O15530); details: PDPK1; read-out: % Inhibition @ 100 nM
468 kinases [27] = molecular target: 468 kinases (Homo sapiens, UniProt Q9UM73); details: ALK; read-out: % Inhibition @ 100 nM
468 kinases [28] = molecular target: 468 kinases (Homo sapiens, UniProt P43403); details: ZAP70; read-out: % Inhibition @ 100 nM
468 kinases [29] = molecular target: 468 kinases (Homo sapiens, UniProt P00533, T790M); details: EGFR(T790M); read-out: % Inhibition @ 100 nM
468 kinases [30] = molecular target: 468 kinases (Homo sapiens, UniProt Q96NX5); details: CAMK1G; read-out: % Inhibition @ 100 nM
468 kinases [31] = molecular target: 468 kinases (Homo sapiens, UniProt Q00537); details: PCTK2; read-out: % Inhibition @ 100 nM
468 kinases [32] = molecular target: 468 kinases (Homo sapiens, UniProt P49841); details: GSK3B; read-out: % Inhibition @ 100 nM
468 kinases [33] = molecular target: 468 kinases (Homo sapiens, UniProt P36507); details: MEK2; read-out: % Inhibition @ 100 nM

468 kinases (Homo sapiens, UniProt Q13705), sequence (Q13705 19-512 limits assumed): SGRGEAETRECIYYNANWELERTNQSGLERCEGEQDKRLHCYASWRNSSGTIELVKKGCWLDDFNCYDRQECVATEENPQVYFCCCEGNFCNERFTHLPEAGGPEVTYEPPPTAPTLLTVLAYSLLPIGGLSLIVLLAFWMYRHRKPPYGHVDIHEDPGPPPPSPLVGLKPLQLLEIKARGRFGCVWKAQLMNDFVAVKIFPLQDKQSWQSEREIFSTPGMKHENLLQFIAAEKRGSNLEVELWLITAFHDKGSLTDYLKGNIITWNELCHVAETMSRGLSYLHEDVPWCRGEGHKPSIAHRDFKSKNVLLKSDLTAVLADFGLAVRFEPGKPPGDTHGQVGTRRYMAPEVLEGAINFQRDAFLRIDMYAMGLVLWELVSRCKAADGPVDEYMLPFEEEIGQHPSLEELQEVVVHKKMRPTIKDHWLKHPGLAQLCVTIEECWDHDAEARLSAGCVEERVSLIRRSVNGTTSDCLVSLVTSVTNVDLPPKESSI
468 kinases (Homo sapiens, UniProt Q96RR4), sequence (Q96RR4 2-588 limits assumed): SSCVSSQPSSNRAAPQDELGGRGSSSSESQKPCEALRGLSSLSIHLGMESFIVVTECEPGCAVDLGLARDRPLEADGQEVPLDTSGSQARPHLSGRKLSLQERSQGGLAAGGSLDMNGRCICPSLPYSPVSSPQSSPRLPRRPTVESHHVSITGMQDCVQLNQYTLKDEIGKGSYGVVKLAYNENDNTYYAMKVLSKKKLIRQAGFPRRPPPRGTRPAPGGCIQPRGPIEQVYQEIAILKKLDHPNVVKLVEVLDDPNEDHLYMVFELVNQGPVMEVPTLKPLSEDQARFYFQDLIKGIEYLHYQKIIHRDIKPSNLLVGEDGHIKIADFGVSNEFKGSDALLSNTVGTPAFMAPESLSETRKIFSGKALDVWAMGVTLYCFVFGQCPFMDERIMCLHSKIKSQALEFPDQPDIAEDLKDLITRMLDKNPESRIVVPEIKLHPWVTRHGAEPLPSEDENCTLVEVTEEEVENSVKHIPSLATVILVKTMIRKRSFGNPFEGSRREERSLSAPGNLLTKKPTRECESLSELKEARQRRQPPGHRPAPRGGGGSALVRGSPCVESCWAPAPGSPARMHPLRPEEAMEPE
468 kinases (Homo sapiens, UniProt P27037), sequence (P27037 20-513 limits assumed): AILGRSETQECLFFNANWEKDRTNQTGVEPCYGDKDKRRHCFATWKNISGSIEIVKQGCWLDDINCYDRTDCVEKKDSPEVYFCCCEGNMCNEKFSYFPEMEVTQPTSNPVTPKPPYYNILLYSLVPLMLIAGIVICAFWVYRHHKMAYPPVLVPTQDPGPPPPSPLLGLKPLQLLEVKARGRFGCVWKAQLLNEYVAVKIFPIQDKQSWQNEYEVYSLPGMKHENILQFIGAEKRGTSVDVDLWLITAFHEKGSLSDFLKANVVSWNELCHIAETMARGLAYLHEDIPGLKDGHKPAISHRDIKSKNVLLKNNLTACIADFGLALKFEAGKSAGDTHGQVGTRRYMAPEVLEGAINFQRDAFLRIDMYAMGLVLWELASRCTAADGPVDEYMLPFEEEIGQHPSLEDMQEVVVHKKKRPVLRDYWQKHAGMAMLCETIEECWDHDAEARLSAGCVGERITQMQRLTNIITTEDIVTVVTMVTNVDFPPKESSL
468 kinases (Homo sapiens, UniProt P22607, G697C), sequence (P22607 23-806 G697C limits assumed): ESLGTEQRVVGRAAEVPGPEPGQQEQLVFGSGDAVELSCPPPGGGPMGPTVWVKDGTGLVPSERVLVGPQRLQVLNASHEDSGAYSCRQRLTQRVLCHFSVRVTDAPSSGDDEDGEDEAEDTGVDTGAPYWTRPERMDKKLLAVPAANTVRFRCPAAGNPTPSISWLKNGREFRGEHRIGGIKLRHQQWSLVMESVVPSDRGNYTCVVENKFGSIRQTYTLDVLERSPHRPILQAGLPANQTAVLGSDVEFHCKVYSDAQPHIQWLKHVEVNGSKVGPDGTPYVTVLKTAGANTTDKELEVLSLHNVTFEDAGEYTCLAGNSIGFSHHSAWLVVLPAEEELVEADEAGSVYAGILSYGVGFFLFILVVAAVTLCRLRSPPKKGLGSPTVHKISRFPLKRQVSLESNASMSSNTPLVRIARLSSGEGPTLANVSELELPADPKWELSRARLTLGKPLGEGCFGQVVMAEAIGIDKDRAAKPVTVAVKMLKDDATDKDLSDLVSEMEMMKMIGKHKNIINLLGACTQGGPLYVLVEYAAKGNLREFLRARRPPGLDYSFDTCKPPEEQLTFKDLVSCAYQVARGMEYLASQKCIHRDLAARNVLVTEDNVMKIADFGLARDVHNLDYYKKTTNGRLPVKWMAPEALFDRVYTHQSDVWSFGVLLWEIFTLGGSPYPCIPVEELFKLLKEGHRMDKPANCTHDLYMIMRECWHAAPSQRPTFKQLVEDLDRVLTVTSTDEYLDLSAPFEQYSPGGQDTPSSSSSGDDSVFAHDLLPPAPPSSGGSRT
468 kinases (Homo sapiens, UniProt Q9UM73), sequence (Q9UM73 19-1620 limits assumed): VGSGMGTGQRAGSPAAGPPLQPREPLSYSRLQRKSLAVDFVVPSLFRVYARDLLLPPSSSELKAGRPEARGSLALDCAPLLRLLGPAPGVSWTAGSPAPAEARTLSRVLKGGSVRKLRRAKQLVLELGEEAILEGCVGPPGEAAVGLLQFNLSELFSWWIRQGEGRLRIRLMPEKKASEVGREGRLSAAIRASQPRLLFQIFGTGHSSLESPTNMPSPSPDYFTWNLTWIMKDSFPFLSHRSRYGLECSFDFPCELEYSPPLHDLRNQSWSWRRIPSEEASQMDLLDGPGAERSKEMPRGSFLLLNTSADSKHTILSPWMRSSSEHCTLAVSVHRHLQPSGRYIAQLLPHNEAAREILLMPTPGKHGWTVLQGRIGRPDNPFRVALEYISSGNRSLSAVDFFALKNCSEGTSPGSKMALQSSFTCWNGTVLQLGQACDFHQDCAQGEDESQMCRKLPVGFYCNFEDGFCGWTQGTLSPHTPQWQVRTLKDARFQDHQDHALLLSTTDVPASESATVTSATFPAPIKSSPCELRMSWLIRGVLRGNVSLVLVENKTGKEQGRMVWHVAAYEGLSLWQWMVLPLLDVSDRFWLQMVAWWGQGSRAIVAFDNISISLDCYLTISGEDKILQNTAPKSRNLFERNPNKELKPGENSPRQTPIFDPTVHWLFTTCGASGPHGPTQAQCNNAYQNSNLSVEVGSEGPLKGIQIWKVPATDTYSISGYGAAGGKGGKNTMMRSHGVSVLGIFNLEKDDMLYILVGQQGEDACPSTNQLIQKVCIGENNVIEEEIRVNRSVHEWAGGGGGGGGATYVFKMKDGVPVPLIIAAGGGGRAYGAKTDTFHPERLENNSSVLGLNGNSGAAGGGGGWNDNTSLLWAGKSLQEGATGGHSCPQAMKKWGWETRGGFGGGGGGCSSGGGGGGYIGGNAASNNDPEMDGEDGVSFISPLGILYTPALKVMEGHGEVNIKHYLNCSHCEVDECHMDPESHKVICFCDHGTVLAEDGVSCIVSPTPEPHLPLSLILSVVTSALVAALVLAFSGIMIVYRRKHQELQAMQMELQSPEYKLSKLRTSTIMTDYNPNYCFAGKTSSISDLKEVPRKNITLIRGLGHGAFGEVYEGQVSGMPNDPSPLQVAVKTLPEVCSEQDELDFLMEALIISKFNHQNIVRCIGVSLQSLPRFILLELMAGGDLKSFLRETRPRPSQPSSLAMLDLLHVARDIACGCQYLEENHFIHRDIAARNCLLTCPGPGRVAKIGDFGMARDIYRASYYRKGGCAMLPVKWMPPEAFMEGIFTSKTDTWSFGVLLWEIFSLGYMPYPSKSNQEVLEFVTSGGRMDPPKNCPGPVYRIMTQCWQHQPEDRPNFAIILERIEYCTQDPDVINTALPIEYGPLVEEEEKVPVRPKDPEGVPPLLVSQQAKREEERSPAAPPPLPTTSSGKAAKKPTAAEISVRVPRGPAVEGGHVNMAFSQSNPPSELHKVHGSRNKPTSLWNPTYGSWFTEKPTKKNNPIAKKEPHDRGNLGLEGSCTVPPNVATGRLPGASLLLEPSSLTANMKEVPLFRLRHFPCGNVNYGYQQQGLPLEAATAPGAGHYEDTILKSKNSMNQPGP
468 kinases (Homo sapiens, UniProt P15056, V600E), sequence (P15056 2-766 V600E limits assumed): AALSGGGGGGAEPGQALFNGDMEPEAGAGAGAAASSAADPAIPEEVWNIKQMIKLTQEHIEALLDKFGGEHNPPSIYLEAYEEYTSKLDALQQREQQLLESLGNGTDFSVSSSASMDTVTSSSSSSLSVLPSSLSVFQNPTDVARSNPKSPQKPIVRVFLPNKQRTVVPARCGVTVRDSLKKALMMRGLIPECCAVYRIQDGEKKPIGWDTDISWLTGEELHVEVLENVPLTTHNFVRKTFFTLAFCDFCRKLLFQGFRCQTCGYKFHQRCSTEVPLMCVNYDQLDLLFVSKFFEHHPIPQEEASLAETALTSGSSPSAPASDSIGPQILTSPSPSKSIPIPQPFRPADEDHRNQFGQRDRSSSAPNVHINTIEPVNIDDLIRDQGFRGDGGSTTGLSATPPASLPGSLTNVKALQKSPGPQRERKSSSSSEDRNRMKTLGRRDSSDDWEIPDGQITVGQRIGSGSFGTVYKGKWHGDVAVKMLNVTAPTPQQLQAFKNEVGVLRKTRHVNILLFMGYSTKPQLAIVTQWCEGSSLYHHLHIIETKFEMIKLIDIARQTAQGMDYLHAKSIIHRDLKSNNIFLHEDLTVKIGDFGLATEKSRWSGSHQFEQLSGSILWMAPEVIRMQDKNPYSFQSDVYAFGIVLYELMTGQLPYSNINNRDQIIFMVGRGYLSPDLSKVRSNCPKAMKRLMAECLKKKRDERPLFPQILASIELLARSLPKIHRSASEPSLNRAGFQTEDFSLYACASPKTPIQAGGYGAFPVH

With CCN(CC)CCNC(=O)c1c(C)[nH]c(/C=C2\C(=O)Nc3ccc(CCO)cc32)c1C [Compound No. 10, (Z)—N-(2-(Diethylamino)ethyl)-5-((5-(2-hydroxyethyl)-2-oxoindolin-3-ylidene)methyl)-2,4-dimethyl-1H-pyrrole-3-carboxamide] the inhibition at 0.1 µM (468 kinases [1]) was 0%, the inhibition at 0.1 µM (468 kinases [2]) was 58% and the inhibition at 0.1 µM (468 kinases [3]) was 0%. It also gave an inhibition at 0.1 µM (468 kinases [4]) of 17%, an inhibition at 0.1 µM (468 kinases [5]) of 29% and an inhibition at 0.1 µM (468 kinases [6]) of 0%. For the same compound, the inhibition at 0.1 µM (468 kinases [7]) was 86%, the inhibition at 0.1 µM (468 kinases [8]) was 1% and the inhibition at 0.1 µM (468 kinases [9]) was 12%. For the same compound, the inhibition at 0.1 µM (468 kinases [10]) was 4%, the inhibition at 0.1 µM (468 kinases [11]) was 3% and the inhibition at 0.1 µM (468 kinases [12]) was 10%. The inhibition at 0.1 µM (468 kinases [13]) was 8%, the inhibition at 0.1 µM (468 kinases [14]) was 0% and the inhibition at 0.1 µM (468 kinases [15]) was 0%. It also gave an inhibition at 0.1 µM (468 kinases [16]) of 29%, an inhibition at 0.1 µM (468 kinases [17]) of 0% and an inhibition at 0.1 µM (468 kinases [18]) of 0%. For the same compound, the inhibition at 0.1 µM (468 kinases [19]) was 16%, the inhibition at 0.1 µM (468 kinases [20]) was 1% and the inhibition at 0.1 µM (468 kinases [21]) was 59%. It also gave an inhibition at 0.1 µM (468 kinases [22]) of 88%, an inhibition at 0.1 µM (468 kinases [23]) of 86% and an inhibition at 0.1 µM (468 kinases [24]) of 52%. The inhibition at 0.1 µM (468 kinases [25]) was 57%, the inhibition at 0.1 µM (468 kinases [26]) was 11% and the inhibition at 0.1 µM (468 kinases [27]) was 29%. The inhibition at 0.1 µM (468 kinases [28]) was 6%, the inhibition at 0.1 µM (468 kinases [29]) was 0% and the inhibition at 0.1 µM (468 kinases [30]) was 0%. It also gave an inhibition at 0.1 µM (468 kinases [31]) of 0%, an inhibition at 0.1 µM (468 kinases [32]) of 0% and an inhibition at 0.1 µM (468 kinases [33]) of 90.4%.
With CCN(CC)CCNC(=O)c1c(C)[nH]c(/C=C2\C(=O)Nc3ccc(CCC(N)=O)cc32)c1C [Compound No. 16, (Z)-5-((5-(3-Amino-3-oxopropyl)-2-oxoindolin-3-ylidene)methyl)-N-(2-(diethylamino)ethyl)-2,4-dimethyl-1H-pyrrole-3-carboxamide] the inhibition at 0.1 µM (468 kinases [1]) was 1%, the inhibition at 0.1 µM (468 kinases [2]) was 56% and the inhibition at 0.1 µM (468 kinases [3]) was 15%. The inhibition at 0.1 µM (468 kinases [4]) was 16%, the inhibition at 0.1 µM (468 kinases [5]) was 49% and the inhibition at 0.1 µM (468 kinases [6]) was 55%. It also gave an inhibition at 0.1 µM (468 kinases [7]) of 55%, an inhibition at 0.1 µM (468 kinases [8]) of 0% and an inhibition at 0.1 µM (468 kinases [9]) of 0%. The inhibition at 0.1 µM (468 kinases [10]) was 28%, the inhibition at 0.1 µM (468 kinases [11]) was 0% and the inhibition at 0.1 µM (468 kinases [12]) was 18%. It also gave an inhibition at 0.1 µM (468 kinases [13]) of 0%, an inhibition at 0.1 µM (468 kinases [14]) of 52% and an inhibition at 0.1 µM (468 kinases [15]) of 20%. It also gave an inhibition at 0.1 µM (468 kinases [16]) of 9%, an inhibition at 0.1 µM (468 kinases [17]) of 13% and an inhibition at 0.1 µM (468 kinases [18]) of 9%. For the same compound, the inhibition at 0.1 µM (468 kinases [19]) was 15%, the inhibition at 0.1 µM (468 kinases [20]) was 12% and the inhibition at 0.1 µM (468 kinases [21]) was 48%. For the same compound, the inhibition at 0.1 µM (468 kinases [22]) was 87%, the inhibition at 0.1 µM (468 kinases [23]) was 88% and the inhibition at 0.1 µM (468 kinases [24]) was 12%. The inhibition at 0.1 µM (468 kinases [25]) was 58%, the inhibition at 0.1 µM (468 kinases [26]) was 3% and the inhibition at 0.1 µM (468 kinases [27]) was 54%. The inhibition at 0.1 µM (468 kinases [28]) was 60%, the inhibition at 0.1 µM (468 kinases [29]) was 30% and the inhibition at 0.1 µM (468 kinases [30]) was 37%. The inhibition at 0.1 µM (468 kinases [31]) was 17%, the inhibition at 0.1 µM (468 kinases [32]) was 36% and the inhibition at 0.1 µM (468 kinases [33]) was 83%.

Reference: patent publication US12435059B2, “AMP-activated protein kinase inhibitors and methods of making and using the same” (The Regents of the University of Colorado, priority 2019, dated 2025)
